What was measured:
[1] = target: GST-tagged KRAS-G12D (2-169) (Homo sapiens, UniProt P01116, G12D); assay: Nucleotide exchange assay (NEA), SOS-mediated, HTRF, KRAS G12D; type: biochemical; conditions: Table 4; IC50 extracted at 30 min; 20 nM SOScat; read-out: NEA G12D IC50
Summary of the method: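 Compound preincubated 1 h at RT with 0.25 nM GST-KRAS-G12D (2-169) and anti-GST Tb donor, then 20 nM SOS1cat (564-1049) and 150 nM GTP-DY-647P1 added; pH 7.3 HEPES buffer with MgCl2 and DTT. HTRF monitored at RT; % inhibition versus DMSO and no-SOS blank, 4-parameter IC50 taken at 30 min.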

[2] = target: GST-tagged KRAS-G12V (2-169) (Homo sapiens, UniProt P01116, G12V); assay: Nucleotide exchange assay (NEA), SOS-mediated, HTRF, KRAS G12V; type: biochemical; conditions: Table 4; IC50 extracted at 90 min; 80 nM SOS
Chain of GST-tagged KRAS-G12V (2-169) (P01116 2-169 isoform P01116-2 G12V): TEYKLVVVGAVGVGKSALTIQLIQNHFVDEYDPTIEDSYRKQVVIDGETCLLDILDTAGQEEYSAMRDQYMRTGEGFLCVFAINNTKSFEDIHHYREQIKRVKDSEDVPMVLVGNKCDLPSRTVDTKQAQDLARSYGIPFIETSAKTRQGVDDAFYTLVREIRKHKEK
Summary of the method: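 GST-KRAS-G12V (2-169), 0.25 nM, pre-incubated 1 h at RT with compound, then SOS1cat (564-1049) 80 nM and GTP-DY-647P1 150 nM added in HEPES pH 7.3 buffer with MgCl2 and DTT. HTRF via anti-GST Tb cryptate read over 90 min; IC50 from 4-parameter fit at 90 min, blanked to no-SOS reactions.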

[3] = test system: phospho-ERK in GP2D (KRAS-G12D) cells; assay: pERK In Cell Western (ICW) assay (Method B), GP2D; type: cell-based; conditions: GP2d, 3 h, Table 4
Protocol: (§1) pERK ICW is a high throughput screening assay to evaluate the cellular potency of mutant KRAS small molecule inhibitors. KRAS mutant cell lines AGS, GP2D (KRAS-G12D) as well as SW620 (KRAS-G12V) were purchased from ATCC and maintained respectively in RPMI/DMEM/RPMI medium supplemented with 10% fetal bovine serum.
(§2) Cells grown in exponential phase were trypsinized, resuspended in fresh media, and viable cells were counted using a cell counter with Trypan Blue (BioRad TC20). Cells were seeded into 384-well plate (Greiner 781091) at density of 5,000 cells/well for AGS and 10,000 cells/well for GP2D/SW620 and allowed to grow overnight in a 37° C. CO2 incubator. The next day, compounds were dispensed into wells with a ½ log, 9-point serial dilution using a Tecan D300e dispenser and incubated for 3 hours in a 37° C. CO2 incubator. Cells were then fixed with paraformaldehyde (Electron Microscopy Sciences, 15710, 4% final concentration) for 30 min, permeabilized with wash buffer (1×PBS+0.1% Triton X-100) for 30 min and blocked with Odyssey blocking buffer (Li—COR 927-70001) for 1 hour, all at room temperature (RT). Phospho-ERK antibody (CST 4370L) was diluted 1:500 in Odyssey T20 (PBS) antibody diluent (Li—COR 927-75001) and incubated with cells overnight at 4° C. The next day, plates were washed 5× with wash buffer, incubated with IRDye 800 CW, Goat anti-Rabbit secondary antibody (Li—COR 926-32211, 1:800) and DRAQ5 (CST 4084L, 1:5,000) diluted in Odyssey T20 (PBS) antibody diluent for 1 hour, washed 5×, and imaged on an Odyssey CLx imaging system.
(§3) For data analysis, signal intensities from 800 (phosphor-ERK) and 700 (DRAQ5) channels were extracted, and phospho-ERK signals were normalized to DRAQ5 signals for each well and percent of blank control values were computed. Data were then imported into Graphpad Prism to compute half-maximal inhibitory concentrations (IC50) using a 4-parameter variable slope model. Z-factor for each plate was computed from signals derived from wells treated with either DMSO or 5 μM of control compound. AGS pERK ICW (Method B) IC50 (uM) values of selected compounds are depicted in Table 2 with compounds having a value ≥0.001 uM to 0.01 uM as ++++; ≥0.01 uM to 0.1 uM as +++; ≥0.1 uM to 1 uM as ++; ≥1 uM to 10 uM as + and ≥10 uM as NA.

[4] = test system: phospho-ERK in SW620 (KRAS-G12V) cells; assay: pERK In Cell Western (ICW) assay (Method B), SW620; type: cell-based; conditions: Homo sapiens, SW-620, 3 h, Table 4
Protocol: as §1, §2, §3

Chain of GST-tagged KRAS-G12D (2-169) (P01116 2-169 isoform P01116-2 G12D): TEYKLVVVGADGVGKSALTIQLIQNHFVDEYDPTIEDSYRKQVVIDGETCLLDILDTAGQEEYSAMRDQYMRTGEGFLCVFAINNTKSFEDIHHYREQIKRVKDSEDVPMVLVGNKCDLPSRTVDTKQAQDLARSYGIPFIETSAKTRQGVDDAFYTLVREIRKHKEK

| SMILES | IC50 [1] [nM] | IC50 [2] [nM] | IC50 [3] [nM] | IC50 [4] [nM] |
| --- | --- | --- | --- | --- |
| N#Cc1c(N)sc2c1C1(CC2)CN(c2nc(OC[C@@]34CCCN3C[C@H](F)C4)nc(N3C[C@H](O)C[C@@H](O)C3)n2)C1 [Compound 26, 2-amino-1′-[4-[(3R,5R)-3,5-dihydroxy-1-piperidyl]-6-[[(2R,8S)-2-fluoro-1,2,3,5,6,7-hexahydropyrrolizin-8-yl]methoxy]-1,3,5-triazin-2-yl]spiro[5,6-dihydrocyclopenta[b]thiophene-4,3′-azetidine]-3-carbonitrile] | 10 to 100 | 10 to 100 | ≥ 20000 |  |
| N#Cc1c(N)sc2c1C1(CC2)CN(c2nc(OC[C@@]34CCCN3C[C@H](F)C4)nc(N3CCc4noc(N)c4C3)n2)C1 [Compound 31, 2-amino-1′-[4-(3-amino-6,7-dihydro-4H-isoxazolo[4,3-c]pyridin-5-yl)-6-[[(2R,8S)-2-fluoro-1,2,3,5,6,7-hexahydropyrrolizin-8-yl]methoxy]-1,3,5-triazin-2-yl]spiro[5,6-dihydrocyclopenta[b]thiophene-4,3′-azetidine]-3-carbonitrile] | 10 to 100 | 100 to 1000 | 100 to 1000 |  |
| N#Cc1c(N)sc2c1C1(CN(c3nc(OCC4(CN5CCOCC5)CC4)nc(N4C[C@@H]5CC[C@@H](N5)C4CO)n3)C1)SC2 (stereo partly drawn) [Compound 188, 2′-amino-1-(4-((1R,5S)-2-(hydroxymethyl)-3,8-diazabicyclo[3.2.1]octan-3-yl)-6-((1-(morpholinomethyl)cyclopropyl)methoxy)-1,3,5-triazin-2-yl)-6′H-spiro[azetidine-3,4′-thieno[3,4-b]thiophene]-3′-carbonitrile] | < 10 | 10 to 100 | < 10 |  |
| CN(C)CC1(COc2nc(N3CC4(CCc5sc(N)c(C#N)c54)C3)nc(N3CCC[C@@](C)(O)C3)n2)CC1(F)F (stereo partly drawn) [Compound 34, 2-amino-1′-[4-[[1-[(dimethylamino)methyl]-2,2-difluoro-cyclopropyl]methoxy]-6-[(3R)-3-hydroxy-3-methyl-1-piperidyl]-1,3,5-triazin-2-yl]spiro[5,6-dihydrocyclopenta[b]thiophene-4,3′-azetidine]-3-carbonitrile] | < 10 | < 10 | 10 to 100 |  |
| C[C@@H]1[C@H](CO)CCCN1c1nc(OC[C@@]23CCCN2C[C@H](F)C3)nc(N2CC3(CCc4sc(N)c(C#N)c43)C2)n1 (racemic) [Compound 24, 2-amino-1′-[4-[[(2R,8S)-2-fluoro-1,2,3,5,6,7-hexahydropyrrolizin-8-yl]methoxy]-6-[rac-(2R,3R)-3-(hydroxymethyl)-2-methyl-1-piperidyl]-1,3,5-triazin-2-yl]spiro[5,6-dihydrocyclopenta[b]thiophene-4,3′-azetidine]-3-carbonitrile] | 100 to 1000 | 100 to 1000 | 1000 to 20000 |  |
| C[C@H](c1cccnc1N)N(CC#N)c1nc(OC[C@@]23CCCN2C[C@H](F)C3)nc(N2CC3(C2)SCc2sc(N)c(C#N)c23)n1 [Compound 246, 2′-amino-1-(4-(((R)-1-(2-aminopyridin-3-yl)ethyl)(cyanomethyl)amino)-6-(((2R,7aS)-2-fluorotetrahydro-TH-pyrrolizin-7a(5H)-yl)methoxy)-1,3,5-triazin-2-yl)-6′H-spiro[azetidine-3,4′-thieno[3,4-b]thiophene]-3′-carbonitrile] | < 10 | < 10 |  | < 10 |
| N#CCC1C=C(F)CN(c2nc(OC[C@@]34CCCN3C[C@H](F)C4)nc(N3CC4(CCc5sc(N)c(C#N)c54)C3)n2)C1 (stereo partly drawn) [Compound 25, 2-amino-1′-[4-[3-(cyanomethyl)-5-fluoro-3,6-dihydro-2H-pyridin-1-yl]-6-[[(2R,8S)-2-fluoro-1,2,3,5,6,7-hexahydropyrrolizin-8-yl]methoxy]-1,3,5-triazin-2-yl]spiro[5,6-dihydrocyclopenta[b]thiophene-4,3′-azetidine]-3-carbonitrile] | 10 to 100 | 10 to 100 | 100 to 1000 |  |
| N#Cc1c(N)sc2c1C1(CN(c3nc(OC[C@@]45CCCN4C[C@H](F)C5)nc(N(CCO)CC4(C#N)CC4)n3)C1)SC2 [Compound 239, 2-amino-1′-[4-[(1-cyanocyclopropyl)methyl-(2-hydroxyethyl)amino]-6-[[(2R,8S)-2-fluoro-1,2,3,5,6,7-hexahydropyrrolizin-8-yl]methoxy]-1,3,5-triazin-2-yl]spiro[6H-thieno[2,3-c]thiophene-4,3′-azetidine]-3-carbonitrile] | < 10 | < 10 |  | 100 to 1000 |
| CC1(O)CCCN(c2nc(OCC34CCCN3C(COc3cc(C(F)(F)F)ncn3)CC4)nc(N3CC4(C3)SCc3sc(N)c(C#N)c34)n2)C1 (single isomer, unassigned) [Compound 256A] | < 10 | < 10 |  | 100 to 1000 |
| N#CCN(Cc1c[nH]nn1)c1nc(OC[C@@]23CCCN2C[C@H](F)C3)nc(N2CC3(C2)SCc2sc(N)c(C#N)c23)n1 [Compound 245, 2-amino-1′-[4-[cyanomethyl(1H-triazol-4-ylmethyl)amino]-6-[[(2R,8S)-2-fluoro-1,2,3,5,6,7-hexahydropyrrolizin-8-yl]methoxy]-1,3,5-triazin-2-yl]spiro[6H-thieno[3,4-b]thiophene-4,3′-azetidine]-3-carbonitrile] | < 10 | < 10 |  | 1000 to 20000 |
| N#Cc1c(N)sc2c1C1(CN(c3nc(OC[C@@]45CCCN4C[C@H](F)C5)nc(N4CC(O)NC(=O)C45CC5)n3)C1)SC2 (stereo partly drawn) [Compound 255, 2-amino-1′-[4-[[(2R,8S)-2-fluoro-1,2,3,5,6,7-hexahydropyrrolizin-8-yl]methoxy]-6-(6-hydroxy-8-oxo-4,7-diazaspiro[2.5]octan-4-yl)-1,3,5-triazin-2-yl]spiro[6H-thieno[3,4-b]thiophene-4,3′-azetidine]-3-carbonitrile] | < 10 | < 10 |  | 1000 to 20000 |
| CCN(CC#N)c1nc(OC[C@@]23CCCN2C[C@H](F)C3)nc(N2CC3(C2)SCc2sc(N)c(C#N)c23)n1 [Compound 237, 2-amino-1′-[4-[cyanomethyl(ethyl)amino]-6-[[(2R,8S)-2-fluoro-1,2,3,5,6,7-hexahydropyrrolizin-8-yl]methoxy]-1,3,5-triazin-2-yl]spiro[6H-thieno[3,4-b]thiophene-4,3′-azetidine]-3-carbonitrile] | < 10 | < 10 |  | 10 to 100 |
| N#CCN(c1nc(OC[C@@]23CCCN2C[C@H](F)C3)nc(N2CC3(C2)SCc2sc(N)c(C#N)c23)n1)C1(C#N)CC1 [Compound 251, 2-amino-1′-[4-[(1-cyanocyclopropyl)-(cyanomethyl)amino]-6-[[(2R,8S)-2-fluoro-1,2,3,5,6,7-hexahydropyrrolizin-8-yl]methoxy]-1,3,5-triazin-2-yl]spiro[6H-thieno[3,4-b]thiophene-4,3′-azetidine]-3-carbonitrile] | < 10 | < 10 |  | 10 to 100 |
| C[C@H](c1cccnc1N)N(C)c1nc(OC[C@@]23CCCN2C[C@H](F)C3)nc(N2CCC(c3c(Cl)sc(N)c3C#N)C2)n1 (stereo partly drawn) [Compound 191, 2-amino-4-[1-[4-[[(1R)-1-(2-amino-3-pyridyl)ethyl]-methyl-amino]-6-[[(2R,8S)-2-fluoro-1,2,3,5,6,7-hexahydropyrrolizin-8-yl]methoxy]-1,3,5-triazin-2-yl]pyrrolidin-3-yl]-5-chloro-thiophene-3-carbonitrile] | 10 to 100 | < 10 |  | 10 to 100 |

Source: US12421254B2, “KRAS modulators and uses thereof” (Quanta Therapeutics, Inc., priority 2023, dated 2025)
